Patent publication US12378243B2, “Quinoline compounds as inhibitors of KRAS” (Incyte Corporation, priority 2021, dated 2025)

What was measured:
KRAS G12D = KRAS G12D (Homo sapiens, UniProt P01116, G12D); experiment: GDP-GTP exchange assay, KRAS G12D; format: biochemical; details: bodipy-loaded KRAS G12D 2.5 nM, GppNHp 500 uM, SOS1 150 nM; 4 hours pre-incubation, 2 hours incubation; read-out: G12D_exchange
Procedure: Inhibitors were serially diluted in DMSO and a volume of 0.1 μL was transferred to the wells of a black low volume 384-well plate. […] The exchange was initiated by the addition of a 5 μL/well volume containing 1 mM GppNHp and 300 nM SOS1 in assay buffer. […] The reaction plates were incubated at ambient temperature for 2 hours, a time estimated for complete GDP-GTP exchange in the absence of inhibitor.
Either GraphPad prism or Genedata Screener SmartFit was used to analyze the data. The IC50 values were derived by fitting the data to a four parameter logistic equation producing a sigmoidal dose-response curve with a variable Hill coefficient.
“NA” indicates IC50 not available.

KRAS G12V mutant = KRAS G12V mutant (Homo sapiens, UniProt P01116, G12V); experiment: GDP-GTP exchange assay, KRAS G12V; format: biochemical; details: bodipy loaded KRAS G12V 2.5 nM; 3 hours incubation after adding GppNHp-SOS1 mixture; read-out: G12V_exchange
Caco-2 cells = experiment: Caco2 assay (permeability, A-B); format: in vitro ADME; details: Papp absorptive direction (A-B), test compound 50 μM, 120 minutes at 37° C.
Procedure: Caco-2 cells are grown at 37° C. in an atmosphere of 5% CO2 in DMEM growth medium supplemented with 10% (v/v) fetal bovine serum, 1% (v/v) nonessential amino acids, penicillin (100 U/mL), and streptomycin (100 μg/mL). Confluent cell monolayers are subcultured every 7 days or 4 days for Caco-2 by treatment with 0.05% trypsin containing […]. Caco-2 cells are seeded in 96-well Transwell plates. The seeding density for Caco-2 cells is 14,000 cells/well. DMEM growth medium is replaced every other day after seeding. Cell monolayers are used for transport assays between 22 and 25 days for Caco-2 cells.
Cell culture medium is removed and replaced with HBSS. To measure the TEER, the HBSS is added into the donor compartment (apical side) and receiver compartment (basolateral side). The TEER is measured by using a REMS Autosampler to ensure the integrity of the cell monolayers. Caco-2 cell monolayers with TEER values ≥300 Ω·cm^2 are used for transport experiments. To determine the Papp in the absorptive direction (A-B), solution of test compound (50 μM) in HBSS is added to the donor compartment (apical side), while HBSS solution with 4% BSA is added to the receiver compartment (basolateral side). The apical volume was 0.075 mL, and the basolateral volume is 0.25 mL. The incubation period is 120 minutes at 37° C. in an atmosphere of 5% CO2. At the end of the incubation period, samples from the donor and receiver sides are removed and an equal volume of acetonitrile is added for protein precipitation. The supernatants are collected after centrifugation (3000 rpm, Allegra X-14R Centrifuge from Beckman Coulter, Indianapolis, IN) for LCMS analysis. The permeability value is determined according to the equation:
[formula] • where the flux rate (F, mass/time) is calculated from the slope of cumulative amounts of compound of interest on the receiver side, SA is the surface area of the cell membrane, VD is the donor volume, and MD is the initial amount of the solution in the donor chamber.
The symbol “+” indicates a Caco-2 value of […], “++” indicates a Caco-2 value of >0.5 but ≤1; and “+++” indicates a Caco-2 value of >1. “NA” indicates IC50 not available.

Sequence of KRAS G12V mutant (P01116 1-188 isoform P01116-2 G12V): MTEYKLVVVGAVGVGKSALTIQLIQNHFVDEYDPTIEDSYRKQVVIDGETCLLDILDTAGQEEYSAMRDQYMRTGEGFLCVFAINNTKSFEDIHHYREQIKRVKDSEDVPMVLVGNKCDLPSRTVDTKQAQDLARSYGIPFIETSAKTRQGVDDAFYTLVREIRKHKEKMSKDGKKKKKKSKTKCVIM
Sequence of KRAS G12D (P01116 1-188 isoform P01116-2 G12D): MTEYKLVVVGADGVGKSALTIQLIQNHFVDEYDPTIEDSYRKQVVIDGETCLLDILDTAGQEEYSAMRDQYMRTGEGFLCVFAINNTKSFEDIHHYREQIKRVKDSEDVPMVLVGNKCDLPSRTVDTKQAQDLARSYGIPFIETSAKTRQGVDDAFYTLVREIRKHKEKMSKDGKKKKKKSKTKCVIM

COC(=O)N1C[C@@H](F)C[C@@H]1c1cc2c(-c3ccc(C(C)(C)O)nc3)nc3c(F)c(-c4cccc(Cl)c4Cl)c(CCC#N)cc3c2n1[C@H]1[C@H]2CN[C@@H]1C2 [Example 51, Methyl (2R,4S)-2-(1-((1R,4R,5S)-2-azabicyclo[2.1.1]hexan-5-yl)-8-(2-cyanoethyl)-7-(2,3-dichlorophenyl)-6-fluoro-4-(6-(2-hydroxypropan-2-yl)pyridin-3-yl)-1H-pyrrolo[3,2-c]quinolin-2-yl)-4-fluoropyrrolidine-1-carboxylate]
IC50 (KRAS G12D): < 100 nM
IC50 (KRAS G12V mutant): < 100 nM
Caco-2 (Caco-2 cells; Table 4): +++ (a Caco-2 value of >1)

CN(C)C(=O)c1ccc(-c2nc3c(F)c(-c4cccc(Cl)c4Cl)c(CCC#N)cc3c3c2cc([C@H]2CCCN2C(=O)C2(F)CC2)n3[C@H]2[C@H]3CN[C@@H]2C3)cn1 [Example 72, 5-(1-((1R,4R,5S)-2-Azabicyclo[2.1.1]hexan-5-yl)-8-(2-cyanoethyl)-7-(2,3-dichlorophenyl)-6-fluoro-2-((R)-1-(1-fluorocyclopropane-1-carbonyl)pyrrolidin-2-yl)-1H-pyrrolo[3,2-c]quinolin-4-yl)-N,N-dimethylpicolinamide]
IC50 (KRAS G12D): < 100 nM
IC50 (KRAS G12V mutant): < 100 nM
Caco-2 (Caco-2 cells; Table 4): +++ (a Caco-2 value of >1)

CC(=O)N1CC[C@H](n2ccc3c(O[C@@H](C)[C@@H]4CCCN4C)nc4c(F)c(-c5cccc6cccc(C#N)c56)c(Cl)cc4c32)C[C@H]1CC#N (single isomer, unassigned) [Example 24a]
IC50 (KRAS G12D): < 100 nM
IC50 (KRAS G12V mutant): < 100 nM

Cc1nc2c(F)c(-c3cccc(Cl)c3Cl)c(CCC#N)cc2c2c1cc([C@H]1C[C@H]3C[C@H]3N1C(=O)C1(F)CC1)n2[C@H]1[C@H]2CN[C@@H]1C2 [Example 64, 3-(1-((1R,4R,5S)-2-Azabicyclo[2.1.1]hexan-5-yl)-7-(2,3-dichlorophenyl)-6-fluoro-2-((1R,3R,5R)-2-(1-fluorocyclopropane-1-carbonyl)-2-azabicyclo[3.1.0]hexan-3-yl)-4-methyl-1H-pyrrolo[3,2-c]quinolin-8-yl)propanenitrile]
IC50 (KRAS G12D): < 100 nM
IC50 (KRAS G12V mutant): 100 to 1000 nM
Caco-2 (Caco-2 cells; Table 4): +++ (a Caco-2 value of >1)

CC(=O)N1CC[C@H](n2ncc3c(O[C@@H](C)[C@@H]4CCCN4C)nc4c(F)c(-c5nccc6cccc(C#N)c56)c(Cl)cc4c32)C[C@H]1CC#N (single isomer, unassigned) [Example 23a]
IC50 (KRAS G12D): < 100 nM
IC50 (KRAS G12V mutant): < 100 nM

Cc1cc2c(O[C@@H](C)[C@@H]3CCCN3C)nc3c(F)c(-c4cc(O)cc5ccc(F)cc45)c(CCC#N)cc3c2n1[C@H]1[C@H]2CN[C@@H]1C2 (single isomer, unassigned) [Example 22]
IC50 (KRAS G12D): < 100 nM
IC50 (KRAS G12V mutant): < 100 nM
Caco-2 (Caco-2 cells; Table 3): + (a Caco-2 value of 50.5)

COC(=O)N1[C@@H](c2cc3c(-c4ccc(C(=O)N(C)C)nc4)nc4c(F)c(-c5cccc(Cl)c5Cl)c(CCC#N)cc4c3n2[C@H]2[C@H]3CN[C@@H]2C3)C[C@@H]2C[C@@H]21 [Example 30, Methyl (1S,3R,5S)-3-(1-((1R,4R,5S)-2-azabicyclo[2.1.1]hexan-5-yl)-8-(2-cyanoethyl)-7-(2,3-dichlorophenyl)-4-(6-(dimethylcarbamoyl)pyridin-3-yl)-6-fluoro-1H-pyrrolo[3,2-c]quinolin-2-yl)-2-azabicyclo[3.1.0]hexane-2-carboxylate]
IC50 (KRAS G12D): < 100 nM
IC50 (KRAS G12V mutant): < 100 nM
Caco-2 (Caco-2 cells; Table 4): +++ (a Caco-2 value of >1)

CC(O)c1nc2c(F)c(-c3cccc(Cl)c3Cl)c(CCC#N)cc2c2c1cc([C@@H](C)NC(=O)C1(F)CCC1)n2[C@H]1[C@H]2CN[C@@H]1C2 (stereo partly drawn) [Example 66, N-((1R)-1-(1-((1R,4R,5S)-2-azabicyclo[2.1.1]hexan-5-yl)-8-(2-cyanoethyl)-7-(2,3-dichlorophenyl)-6-fluoro-4-(1-hydroxyethyl)-1H-pyrrolo[3,2-c]quinolin-2-yl)ethyl)-1-fluorocyclobutane-1-carboxamide]
IC50 (KRAS G12D): < 100 nM
IC50 (KRAS G12V mutant): < 100 nM
Caco-2 (Caco-2 cells; Table 4): +++ (a Caco-2 value of >1)

CC(=O)N1CC[C@H](n2ncc3c(O[C@@H](C)[C@@H]4CCCN4C)nc4c(F)c(-c5cccc6cccc(C#N)c56)c(Cl)cc4c32)C[C@H]1CC#N [Example 25, 8-(1-((2S,4S)-1-acetyl-2-(cyanomethyl)piperidin-4-yl)-8-chloro-6-fluoro-4-((S)-1-((S)-1-methylpyrrolidin-2-yl)ethoxy)-1H-pyrazolo[4,3-c]quinolin-7-yl)-1-naphthonitrile]
IC50 (KRAS G12D): < 100 nM
IC50 (KRAS G12V mutant): < 100 nM
Caco-2 (Caco-2 cells; Table 3): +++ (a Caco-2 value of >1)

CNC(=O)c1ccc(-c2nc3c(F)c(-c4cccc5ccc(F)cc45)c(CCC#N)cc3c3c2cc([C@@H](C)N2CCOCC2=O)n3[C@H]2[C@H]3CN[C@@H]2C3)cn1 [Example 45, 5-(1-((1R,4R,5S)-2-Azabicyclo[2.1.1]hexan-5-yl)-8-(2-cyanoethyl)-6-fluoro-7-(7-fluoronaphthalen-1-yl)-2-((R)-1-(3-oxomorpholino)ethyl)-1H-pyrrolo[3,2-c]quinolin-4-yl)-N-methylpicolinamide]
IC50 (KRAS G12D): < 100 nM
IC50 (KRAS G12V mutant): < 100 nM
Caco-2 (Caco-2 cells; Table 4): +++ (a Caco-2 value of >1)

Cc1nc2c(F)c(-c3cccc(Cl)c3Cl)c(CCC#N)cc2c2c1cc([C@@H](C)NS(=O)(=O)C1CC1)n2[C@H]1[C@H]2CN[C@@H]1C2 [Example 58, N-((1R)-1-(1-((1R,4R,5S)-2-Azabicyclo[2.1.1]hexan-5-yl)-8-(2-cyanoethyl)-7-(2,3-dichlorophenyl)-6-fluoro-4-methyl-1H-pyrrolo[3,2-c]quinolin-2-yl)ethyl)cyclopropanesulfonamide]
IC50 (KRAS G12D): < 100 nM
IC50 (KRAS G12V mutant): < 100 nM
Caco-2 (Caco-2 cells; Table 4): ++ (a Caco-2 value of >0.5 but ≤1)

CC(=O)N1CC[C@H](n2ccc3c(O[C@@H](C)[C@@H]4CCCN4C)nc4c(F)c(-c5cccc6cccc(C#N)c56)c(Cl)cc4c32)C[C@H]1CC#N [Example 24, 8-(1-((2S,4S)-1-acetyl-2-(cyanomethyl)piperidin-4-yl)-8-chloro-6-fluoro-4-((S)-1-((S)-1-methylpyrrolidin-2-yl)ethoxy)-1H-pyrrolo[3,2-c]quinolin-7-yl)-1-naphthonitrile]
Caco-2 (Caco-2 cells; Table 3): + (a Caco-2 value of 50.5)

Cc1cnc(-c2nc3c(F)c(-c4cccc(Cl)c4C)c(CCC#N)cc3c3c2cc([C@@H](C)N2CCOCC2=O)n3[C@H]2[C@H]3CN[C@@H]2C3)cn1 [Example 44, 3-(1-((1R,4R,5S)-2-Azabicyclo[2.1.1]hexan-5-yl)-7-(3-chloro-2-methylphenyl)-6-fluoro-4-(5-methylpyrazin-2-yl)-2-((R)-1-(3-oxomorpholino)ethyl)-1H-pyrrolo[3,2-c]quinolin-8-yl)propanenitrile]
Caco-2 (Caco-2 cells; Table 4): +++ (a Caco-2 value of >1)

CN1CC(F)(COc2nc3c(F)c(-c4cc(O)cc5ccccc45)c(CCC#N)cc3c3c2cc(CCC(=O)N(C)C)n3[C@H]2[C@H]3CN[C@@H]2C3)C1 (single isomer, unassigned) [Example 13]
IC50 (KRAS G12D): < 100 nM
IC50 (KRAS G12V mutant): < 100 nM

CC(=O)N1CC[C@H](n2ncc3c(O[C@@H](C)[C@@H]4CCCN4C)nc4c(F)c(-c5nccc6cccc(C#N)c56)c(Cl)cc4c32)C[C@H]1CC#N [Example 23, 1-(1-((2S,4S)-1-Acetyl-2-(cyanomethyl)piperidin-4-yl)-8-chloro-6-fluoro-4-((S)-1-((S)-1-methylpyrrolidin-2-yl)ethoxy)-1H-pyrazolo[4,3-c]quinolin-7-yl)isoquinoline-8-carbonitrile]
Caco-2 (Caco-2 cells; Table 3): ++ (a Caco-2 value of >0.5 but ≤1)
